For series [1] the following is noted: cited from earlier work.
For series [2] the following is noted: sublingual; cited from earlier work.
The conditions of series [3]: cited from earlier work. This is another data set of the same source.
A further series deals with pepsin (Sus scrofa, UniProt P00791). Put plainly: Digestion with simulated gastric fluid. Type of series: in vitro ADME. Conditions: SGF pepsin, gastric pH, data not shown.
Another series deals with purified chymotrypsin. Put plainly: Incubation with purified chymotrypsin. Type of series: in vitro ADME. The note with it: data not shown.
The conditions of series [4]: oral; cited from earlier work.

pepsin, sequence (P00791 60-385): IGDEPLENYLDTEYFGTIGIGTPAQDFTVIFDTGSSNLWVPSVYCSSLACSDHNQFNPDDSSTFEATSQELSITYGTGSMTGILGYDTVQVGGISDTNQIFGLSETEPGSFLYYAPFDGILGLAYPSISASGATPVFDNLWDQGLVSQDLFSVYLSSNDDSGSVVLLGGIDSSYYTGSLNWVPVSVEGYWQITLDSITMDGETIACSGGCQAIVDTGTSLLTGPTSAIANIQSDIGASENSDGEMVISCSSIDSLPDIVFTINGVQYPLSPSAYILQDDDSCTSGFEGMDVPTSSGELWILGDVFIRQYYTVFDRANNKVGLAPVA

`CC[C@H](C)[C@@H]1NC(=O)[C@H](Cc2ccc(O)cc2)NC(=O)[C@@H](N)CSSC[C@@H](C(=O)N2CCC[C@H]2C(=O)N[C@@H](CC(C)C)C(=O)NCC(N)=O)NC(=O)[C@H](CC(N)=O)NC(=O)[C@H](CCC(N)=O)NC1=O` [OT, Oxytocin]: in series [1], the “half-life of injected OT in the plasma” value is 5 to 7 min. Besides, the “bioavailability, given sublingually in humans” value in series [2] was “very poor”. Also, in series [3], the “stability during digestion with human gastric juice” value is given as “stable”. In addition, on pepsin, the “OT hydrolysis on increasing the peptic digestion time to 12 h” value is on record as “did not result in OT hydrolysis”. For the same molecule, in the series with purified chymotrypsin, the “effect of incubation with purified chymotrypsin” value is listed as “led to its hydrolysis”. Moreover, in series [4], the “bioavailability, given orally to pigs” value is listed as “very poor”.

For arginine-vasopressin, in series [3], the “stability during digestion with human gastric juice” value is given as “stable”.

Source of the values: article PMC4165007 (The Indian Journal of Medical Research, 2014).
